The source of these data is patent publication US11378572B2, “Therapeutic agent for immune cell migration-caused disease and method for screening same” (ZYMEDI CO., LTD., priority 2017, dated 2022).

In data set [1] the test system is 129Sv/J Alport mice (COL4A3 knockout mouse). Kind of data set: Animal model of Alport syndrome. It counts as in vivo, 129Sv/J mice. The note with it: 100 mg/kg oral once a day, 4 weeks. The protocol: The experiment was conducted using 129Sv/J mice (Boys town hospital). Animals groups were (i) 129Sv/J wild-type mice with vehicle administration (0.5% methyl cellulose suspension), (ii) 129Sv/J Alport mice (COL4A3 knockout mouse, Cosgrove D et al., Genes Dev. 1996 Dec. 1, 10(23):2981-92) with vehicle administration (0.5% methyl cellulose suspension) (iii) 129Sv/J Alport mice with BC-KI-00053 administration. Each animal group consists of two mice. BC-KI-00053 was dissolved in 0.5% methyl cellulose suspension and orally administered at a concentration of 100 mg/kg, and kidney fibrosis and the immune cell infiltration were evaluated. Each animal group was treated with a control substance or a test agent once a day from 3 weeks of age for a total of 4 weeks. After 4 weeks of treatment, kidney paraffin sections were stained with collagen I (a marker of fibrosis) and CD45 to observe the extent of leukocyte infiltration. Evaluation of fibrosis and infiltration was performed in the same manner as in the above examples.

For data set [2], the target named is T1, KRS (Mus musculus, UniProt Q99MN1).
T1 construct: KRS, which is expressed in monocytes/macrophages and usually present in the cytoplasmic domain, translocates to the plasma membrane by LN421 treatment; endogenous in cells; host or cells: RAW 264.7
Kind of data set: KRS level in plasma membrane/cytosol fractions by western blot (KRS translocation to the plasma membrane). As to conditions: RAW 264.7 cells, laminin 421 1 μg/ml, 100 nM compound, 12 hours. It counts as cell-based. The protocol:
After dispensing RAW 264.7 cells (2×10^6 cells) in 100 mm dish and incubating for 18 hours, cells were treated with LN421 l g/ml in serum free DMEM media and harvested at 0 hour, 12 hour, 24 hour. Proteins of RAW 264.7 cells were separated into the cytosol and membrane fractions using ProteoExtract Subcellular Proteome Extraction Kit (Calbiotech, cat #539790). Obtained proteins were electrophoresed and transferred to PVDF membrane (Milipore) and blocked with 3% skim milk. KRS was then detected by western blot. Specifically, KRS polyclonal antibody (rabbit, Neomics, Co. Ltd. #NMS-01-0005) was added and reacted for 1 hour. Unbound antibody was removed and the membrane was added and reacted with anti-rabbit secondary antibody (ThermoFisher Scientific, #31460). After reacting with the secondary antibody, films were exposed in the dark room using ECL reagent as a substrate. […]
First, in order to determine whether various KRS inhibitor candidates could exert inhibitory effect on the KRS translocation to the plasma membrane, RAW 264.7 cells (2×10^6 cells) were dispensed in 100 mm dishes and incubated for 18 hours, followed by treatment with laminin 421 1 μg/ml in serum free DMEM, and 100 nM of each of various KRS inhibitor candidates, and cells were further incubated for 12 hours. […] Afterwards, KRS was detected by western blot, and the specific method were as described in Example 3. […]
For orientation: A western blot detects proteins with antibodies after separation by electrophoresis.

The test system of data set [3] is CCl4 liver fibrosis animal. In words: CCl4 (carbon tetrachloride)-induced liver fibrosis animal model. Format: in vivo, Actin-DsRed mice. The procedure:
Hepatocytes appear red in Actin-DsRed mice (Stock no. #006051, Jackson Laboratory (Bar Harbor, USA)). In order to induce liver fibrosis in this mouse, CCl4 (carbon tetrachloride) was dissolved in corn oil and injected intraperitoneally twice a week at a concentration of 20% for a total of 6 weeks. Three weeks after start of CCl4 administration, vehicle and BC-KI-00053 (100 mg/kg) were administered orally, daily for three weeks. For vehicle, corn oil:polyethylene glycol 400:Tween 80:methyl cellulose (1%)=20:30:1:49 was used.
The degree of fibrosis on the surface and inside (area with a depth of 30-50 μm) of liver was detected by the Second Harmonic Generation (SHG) technique of intravial imaging (Excitation: 780 nm, Detection: 390 nm).

Setting [4] is: CCl4 6 weeks, BC-KI-00053 100 mg/kg oral daily for 3 weeks.
[5] abbreviates: normal animal (corn oil) + BC-KI-00053 100 mg/kg oral daily 3 weeks.

“Also recorded” adds a separate entry of the source.

T1 sequence (Q99MN1 whole entry, the tested form may be a part): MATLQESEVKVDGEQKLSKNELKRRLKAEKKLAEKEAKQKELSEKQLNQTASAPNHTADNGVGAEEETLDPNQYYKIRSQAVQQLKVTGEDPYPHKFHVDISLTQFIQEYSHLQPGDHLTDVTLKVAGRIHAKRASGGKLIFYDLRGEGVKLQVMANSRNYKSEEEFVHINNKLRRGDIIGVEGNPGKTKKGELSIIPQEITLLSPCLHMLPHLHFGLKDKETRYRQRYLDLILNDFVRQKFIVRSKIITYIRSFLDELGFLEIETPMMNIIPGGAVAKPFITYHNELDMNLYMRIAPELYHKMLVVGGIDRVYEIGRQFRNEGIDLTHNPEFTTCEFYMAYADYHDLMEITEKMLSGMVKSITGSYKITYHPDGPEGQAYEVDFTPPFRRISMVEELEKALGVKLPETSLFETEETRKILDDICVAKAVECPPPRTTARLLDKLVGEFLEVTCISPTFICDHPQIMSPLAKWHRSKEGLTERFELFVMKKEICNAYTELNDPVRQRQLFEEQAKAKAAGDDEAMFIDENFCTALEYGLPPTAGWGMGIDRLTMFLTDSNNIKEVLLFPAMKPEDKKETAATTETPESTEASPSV

With `COc1ccc(CCN(Cc2ccc(C(=O)O)cc2)c2nc3cccc(F)c3s2)cc1` [BC-KI-00053, 4-({(7-fluorobenzo[d]thiazol-2-yl)[2-(4-methoxyphenyl)ethyl]amino}methyl)benzoic acid], in data set [1], the “fibrosis in the kidneys (collagen I)” value is reported as “reduced down to the normal level” and the “leukocyte infiltration in the kidneys (CD45)” value is “reduced down to the normal level”. Moreover, in data set [2], the “level of KRS in the plasma membrane region” value is “reversed; also recorded: significantly lowered”. Besides, in data set [3] (setting [4]), the “fibrosis in the surface and inside the liver (SHG imaging)” value is “greatly reduced”; the hepatocyte necrosis result is recorded as “noticeably reduced”. In data set [3] (setting [5]), the “other symptoms in the liver” value is listed as “no other symptoms” and the weight loss result was “no weight loss”. For the same compound, in data set [3] (normal animal + BC-KI-00053 100 mg/kg), the in vivo tolerability result is on record as “innocuous”.
